# Patent publication US20250320203A1, “4-(3H-PYRAZOLO[4,3-F]QUINOLIN-7-YL)-N-(2-(DIMETHYLAMINO)ETHYL)BENZAMIDE- OR HYDROXAMIC ACID COMPOUNDS, COMPOSITIONS, AND METHODS OF USE” (Purdue Research Foundation, priority 2022, published 2025)
# Key:
# [1] = tested on: histone H3 (Thr3) phosphorylation by haspin; assay: Western blot, histone H3 (Thr3) phosphorylation by haspin in Molm-14 cells; type: cell-based, human; conditions: 24 hours, HSK205 5, 20 or 100 nM, gilteritinib 100 nM
# Method: Whether Compound HSK205 does indeed inhibit haspin in AML cells was then evaluated, and immunoblotting was performed to confirm inhibition of histone H3 (Thr3)phosphorylation by haspin (FIG. 13A). […] The samples were subsequently analyzed for the phosphorylation of histone H3 (Thr3).
# Acute myeloid leukemia cells (Molm-14) were incubated with various concentrations of compound as specified. Cells were collected and lysed, and protein concentrations were quantified relative to BSA standards. After protein denaturation, proteins were separated via SDS-PAGE electrophoresis and transferred to NC membranes. After blocking, overnight incubation with specific primary antibodies, and room temperature incubation for 2 hours with peroxidase-conjugated secondary antibodies, peroxidase activity was detected with SuperSignal West Pico reagents (Thermo Scientific) using a CCD camera LAS-4000 (Fujifilm). Bands were normalized using housekeeping gene, Actin. Values reported represent the means of triplicates and error bars represent SD. All specific antibodies were purchased from Cell Signaling.
# Molm-14-ITD-F691L = assay: Cell viability GI50, Molm-14-ITD-F691L; type: cell-based; conditions: Homo sapiens; 72 hours
# Method: (§1) More specifically, cells were cultured to confluence in RPMI medium supplemented with 10% fetal bovine serum and 1× Penicillin-Streptomycin (Gibco™). Cells were plated at 5,000 cells/well in 96 well plates. After 24-hour incubation at 37° C. in a 5% CO2 incubator, compounds diluted in the same media were added to the indicated final concentration and allowed to incubate at 37° C. in a 5% CO2 incubator for 72 hours. Viability was determined using CellTiter-Blue® Cell Viability Assay (Promega, Madison, WI) with absorbance readings at 570 nm performed on a Cytation™ 5 Cell Imaging Multi-Mode Reader (BioTek) 3 hours after addition. Appropriate vehicle and cell-free controls were included. GI50 readings were confirmed by two scientists on two separate days.
# (§2) Scholl et al. (2020), supra. Accordingly, Compound HSK205 was evaluated against Molm-14 cell lines that harbor resistant mutations commonly found in the clinic, FLT3-ITD-D835Y and F691L (FIG. 15).
# FLT3-ITD = biological target: T1, FLT3-ITD (Homo sapiens, UniProt P36888); assay: FLT3-ITD enzyme inhibition, 10-dose IC50 (Reaction Biology); type: biochemical; conditions: 10 μM ATP
# T1 sequence (P36888 1-993): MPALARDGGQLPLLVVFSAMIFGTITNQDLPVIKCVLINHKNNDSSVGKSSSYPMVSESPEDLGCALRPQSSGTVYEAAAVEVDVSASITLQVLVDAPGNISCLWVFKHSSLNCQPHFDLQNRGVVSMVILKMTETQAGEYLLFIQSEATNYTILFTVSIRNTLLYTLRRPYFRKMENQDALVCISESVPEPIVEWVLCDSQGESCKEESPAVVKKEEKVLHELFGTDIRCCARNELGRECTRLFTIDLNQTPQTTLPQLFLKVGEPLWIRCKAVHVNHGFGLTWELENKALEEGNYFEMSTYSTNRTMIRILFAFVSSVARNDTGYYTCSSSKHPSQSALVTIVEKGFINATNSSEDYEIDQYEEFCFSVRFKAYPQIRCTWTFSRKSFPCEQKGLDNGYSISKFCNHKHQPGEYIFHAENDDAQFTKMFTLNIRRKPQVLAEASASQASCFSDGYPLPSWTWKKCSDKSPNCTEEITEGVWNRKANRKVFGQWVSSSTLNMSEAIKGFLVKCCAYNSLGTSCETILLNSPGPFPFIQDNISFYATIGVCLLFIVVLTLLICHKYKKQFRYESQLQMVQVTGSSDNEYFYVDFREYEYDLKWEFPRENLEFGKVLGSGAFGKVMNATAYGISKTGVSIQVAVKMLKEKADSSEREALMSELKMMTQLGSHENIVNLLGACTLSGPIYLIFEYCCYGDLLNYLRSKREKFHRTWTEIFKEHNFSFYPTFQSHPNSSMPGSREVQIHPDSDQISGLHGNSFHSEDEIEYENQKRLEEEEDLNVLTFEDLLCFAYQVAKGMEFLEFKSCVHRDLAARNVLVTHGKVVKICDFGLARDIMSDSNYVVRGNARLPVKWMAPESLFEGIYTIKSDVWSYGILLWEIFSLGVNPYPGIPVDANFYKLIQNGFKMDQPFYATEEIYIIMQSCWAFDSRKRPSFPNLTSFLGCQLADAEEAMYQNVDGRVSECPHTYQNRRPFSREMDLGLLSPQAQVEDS
# Molm 14-ITD-D835Y = assay: Cell viability GI50, Molm 14-ITD-D835Y; type: cell-based; conditions: Homo sapiens; 72 hours
# Method: as §1, §2
# haspin = biological target: T2, haspin (Homo sapiens, UniProt Q8TF76); assay: Haspin binding Kd (Eurofins); design: purchased Eurofins (contract research service)
# T2 sequence (Q8TF76 1-798): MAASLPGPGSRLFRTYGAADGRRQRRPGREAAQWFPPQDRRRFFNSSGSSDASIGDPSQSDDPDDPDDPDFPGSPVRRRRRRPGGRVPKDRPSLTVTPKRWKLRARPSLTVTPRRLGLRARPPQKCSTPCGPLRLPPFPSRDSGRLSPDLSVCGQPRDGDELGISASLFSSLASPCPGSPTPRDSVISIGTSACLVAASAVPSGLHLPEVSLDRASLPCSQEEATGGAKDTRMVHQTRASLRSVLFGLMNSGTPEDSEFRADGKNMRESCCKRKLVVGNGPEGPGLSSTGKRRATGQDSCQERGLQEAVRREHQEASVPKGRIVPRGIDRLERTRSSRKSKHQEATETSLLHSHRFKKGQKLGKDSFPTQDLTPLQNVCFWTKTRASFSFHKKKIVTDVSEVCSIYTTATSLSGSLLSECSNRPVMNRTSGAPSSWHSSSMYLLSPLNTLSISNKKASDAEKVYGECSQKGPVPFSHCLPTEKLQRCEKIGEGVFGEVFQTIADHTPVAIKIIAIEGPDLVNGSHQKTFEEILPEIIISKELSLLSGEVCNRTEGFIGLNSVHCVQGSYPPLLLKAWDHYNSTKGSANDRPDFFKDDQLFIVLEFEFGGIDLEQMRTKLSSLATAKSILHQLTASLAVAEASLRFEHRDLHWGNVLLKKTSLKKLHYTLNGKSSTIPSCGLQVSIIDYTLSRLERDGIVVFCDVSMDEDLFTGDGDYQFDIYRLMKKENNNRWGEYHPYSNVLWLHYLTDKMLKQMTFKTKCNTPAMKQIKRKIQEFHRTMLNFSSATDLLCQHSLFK
smiles,measurement,setting,value
Cc1c[nH]c(CNC(=O)c2ccc(-c3nc4ccc5[nH]ncc5c4c4c3CCCC4)cc2)n1 [Compound HSK205],phosphorylation of histone H3 (Thr3),[1],effective in reducing phosphyorlation of histone H3 (Thr3)
same,GI50,Molm-14-ITD-F691L,2.2 nM
same,IC50,FLT3-ITD,< 0.5 nM
same,GI50,Molm 14-ITD-D835Y,4.3 nM
same,Kd,haspin,0.55 nM
